Measured values published in ChEMBL document CHEMBL1250449, “Aminoglycoside activity observed on single pre-translocation ribosome complexes” (Nat Chem Biol, 2010).
Each block holds one molecule with its values, some of them ahead of it. Calls of active or inactive are those of the source. No cut-off for these calls is given here. Numbered stars: 1 amine (or outer) side, 2 acyl side, 3 side chain; on linkers, the order of the positions; unused ones are H or OH. Bridge positions count the residues as written; N and C are the ends. Square brackets hold non-standard residues; d marks the D form. Peptide text beside a SMILES is read from it. * marks the point of attachment. X1 = NC1=N[C@@H]([C@H](N[*:1])C(=O)[*:2])C[C@H](O)N1; ΔAla(Z-3-ureido) = NC(=O)N/C=C(\N)C(=O)O; β3hOrn = NCCC[C@H](N)CC(=O)*; Dap = NC[C@H](N)C(=O)O

Columns and labels:
[1] = molecular target: T1, Bacterial 70S ribosome (Bacteria) (UniProt P0A7V0+P60723+P0AG67+P0A7R5+P0A7R9+P0A7S3+P0A7S9+P0AG59+P0ADZ4+P0A7T3+P0AG63+P0A7T7+P0A7U3+P0A7U7+P68679+P0A7V3+P0A7V8+P0A7W1+P02358+P02359+P0A7W7+P0A7X3+P0A7J3+P0A7J7+P0AA10+P0ADY3+P02413+P0ADY7+P0AG44+P0C018+P0A7K6+P0A7L0+P0A7L3+P0AG48+P61175+P0ADZ0+P60624+P68919+P0A7L8+P0A7M2+P0A7M6+P60422+P0AG51+P0A7N1+P0A7M9+P0A7N4+P0A7N9+P0A7P5+P0A7Q1+Q2EEQ2+P0A7Q6+P60438+P62399+P0AG55+P0A7K2); experiment: Binding affinity to Escherichia coli ribosomal pre-translocation complex assessed as stabilization of hybrid-state occupancy by tRNA at <2 uM; settings: MRE600
[2] = molecular target: T1, Bacterial 70S ribosome (Bacteria); experiment: Binding affinity to Escherichia coli ribosomal pre-translocation complex assessed as stabilization of classical-state occupancy by tRNA at 200 uM; settings: MRE600
[3] = molecular target: T1, Bacterial 70S ribosome (Bacteria); experiment: Binding affinity to Escherichia coli ribosomal pre-translocation complex assessed as decreased rate of EF-G-catalyzed translocation by tRNA at <2 uM; settings: MRE600
[4] = molecular target: T1, Bacterial 70S ribosome (Bacteria); experiment: Binding affinity to Escherichia coli ribosomal pre-translocation complex assessed as stabilization of hybrid-state occupancy by tRNA at 100 nM; settings: MRE600
[5] = molecular target: T1, Bacterial 70S ribosome (Bacteria); experiment: Binding affinity to Escherichia coli ribosomal pre-translocation complex assessed as decreased rate of EF-G-catalyzed translocation by tRNA at 100 nM; settings: MRE600
[6] = molecular target: T1, Bacterial 70S ribosome (Bacteria); experiment: Binding affinity to Escherichia coli ribosomal pre-translocation complex assessed as decreased rate of EF-G-catalyzed translocation fraction by tRNA at 100 nM; settings: MRE600
[7] = molecular target: T1, Bacterial 70S ribosome (Bacteria); experiment: Binding affinity to Escherichia coli ribosomal pre-translocation complex assessed as stabilization of hybrid-state occupancy by tRNA at 2 uM; settings: MRE600
Nucleic Acid [8] = experiment: Binding affinity to Escherichia coli ribosomal pre-translocation complex assessed as classical-state occupancy by tRNA at 200 uM (Rvb= 62.4+/-1.1%); assay type: nucleic-acid assay; settings: MRE600
Nucleic Acid [9] = experiment: Binding affinity to Escherichia coli ribosomal pre-translocation complex assessed as tRNA translocation rate at 200 uM (Rvb= 1.57+/-0.05 /sec); assay type: nucleic-acid assay; settings: MRE600
Nucleic Acid [10] = experiment: Binding affinity to Escherichia coli 16S rRNA helix 44 assessed as increase in classical-state occupancy by tRNA at 20 nM to 200 uM by smFRET; assay type: nucleic-acid assay; settings: MRE600
Nucleic Acid [11] = experiment: Binding affinity to Escherichia coli 16S rRNA helix 44 assessed as increase in classical-state occupancy by tRNA at >=20 uM by smFRET; assay type: nucleic-acid assay; settings: MRE600
Nucleic Acid [12] = experiment: Binding affinity to Escherichia coli 16S rRNA helix 44 assessed as increase in classical-state occupancy by tRNA by smFRET; assay type: nucleic-acid assay; settings: MRE600, TDE = time-dependent effect
Nucleic Acid [13] = experiment: Binding affinity to Escherichia coli 23S rRNA G2553C mutant assessed as increase in classical-state occupancy by tRNA by smFRET; assay type: nucleic-acid assay; settings: MRE600
Nucleic Acid [14] = experiment: Binding affinity to Escherichia coli 23S rRNA assessed as increase in classical-state occupancy by tRNA at 20 uM by smFRET; assay type: nucleic-acid assay; settings: MRE600
Nucleic Acid [15] = experiment: Binding affinity to Escherichia coli 16S rRNA helix 44 assessed as stabilization of classical state occupancy by tRNA by smFRET; assay type: nucleic-acid assay, MRE600
Nucleic Acid [16] = experiment: Binding affinity to Escherichia coli 23S rRNA assessed as stabilization of classical state occupancy by tRNA by smFRET; assay type: nucleic-acid assay, MRE600
Nucleic Acid [17] = experiment: Binding affinity to Escherichia coli 16S A1408G rRNA assessed as increase in classical-state occupancy by tRNA by smFRET; assay type: nucleic-acid assay; settings: MRE600
Escherichia coli [18] = experiment: Stabilization of classical-state occupancy by tRNA in ribosomal pre-translocation complex in Escherichia coli MRE600 expressing 16S A1408G and 23S G2553C rRNA mutant by smFRET; assay type: functional
Nucleic Acid [19] = experiment: Binding affinity to Escherichia coli 23S rRNA G2553C mutant assessed as increase in classical-state occupancy by tRNA at 20 uM by smFRET; assay type: nucleic-acid assay; settings: MRE600
Nucleic Acid [20] = experiment: Binding affinity to Escherichia coli 16S rRNA helix 44 assessed as classical-state occupancy by tRNA; assay type: nucleic-acid assay; design: concentration or dose not given beside the values; settings: MRE600
Nucleic Acid [21] = experiment: Binding affinity to Escherichia coli 16S rRNA helix 44 assessed as tRNA translocation rate; assay type: nucleic-acid assay; settings: MRE600
Escherichia coli [22] = experiment: Increase in hybrid-state occupancy by tRNA in ribosomal pre-translocation complex in Escherichia coli MRE600 by smFRET method in presence of 20 uM neomycin; assay type: functional, organism-based
Escherichia coli [23] = experiment: Increase in hybrid-state occupancy by tRNA in ribosomal pre-translocation complex in Escherichia coli MRE600 by smFRET method in presence of 10 uM neomycin; assay type: functional
Nucleic Acid [24] = experiment: Binding affinity to Escherichia coli 16S rRNA helix 44 assessed as increase in classical-state occupancy by tRNA by […]; assay type: nucleic-acid assay, MRE600
Nucleic Acid [25] = experiment: Binding affinity to Escherichia coli 23S rRNA H69 assessed as increase in classical-state occupancy by tRNA by […]; assay type: nucleic-acid assay; settings: MRE600
Escherichia coli [26] = experiment: Increase in classical-state occupancy by tRNA in ribosomal pre-translocation complex in Escherichia coli MRE600 by smFRET method in presence of 200 nM neomycin; assay type: functional, organism-based
Nucleic Acid [27] = experiment: Binding affinity to Escherichia coli 16S rRNA helix 44 assessed as reduction in rate of tRNA exit from classical state at 100 nM; assay type: nucleic-acid assay; settings: MRE600
Nucleic Acid [28] = experiment: Binding affinity to Escherichia coli 16S rRNA helix 44 assessed as reduction in rate of tRNA translocation at 100 nM; assay type: nucleic-acid assay; settings: MRE600
Nucleic Acid [29] = experiment: Binding affinity to Escherichia coli 16S rRNA helix 44 assessed as classical-state occupancy by tRNA at 100 nM (Rvb= 62.4+/-1.1%); assay type: nucleic-acid assay; settings: MRE600
Nucleic Acid [30] = experiment: Binding affinity to Escherichia coli 23S rRNA H69 assessed as classical-state occupancy by tRNA at 20 uM (Rvb= 62.4+/-1.1%); assay type: nucleic-acid assay; settings: MRE600
Nucleic Acid [31] = experiment: Binding affinity to Escherichia coli 16S rRNA helix 44 assessed as tRNA translocation rate at 100 nM (Rvb= 1.57+/-0.05 /sec); assay type: nucleic-acid assay; settings: MRE600
Nucleic Acid [32] = experiment: Binding affinity to Escherichia coli 23S rRNA H69 assessed as tRNA translocation rate at 20 uM (Rvb= 1.57+/-0.05 /sec); assay type: nucleic-acid assay; settings: MRE600
Nucleic Acid [33] = experiment: Binding affinity to Escherichia coli 23S rRNA assessed as decrease in classical-state occupancy by tRNA at 20 uM by smFRET; assay type: nucleic-acid assay; design: scale not given: the % may be the effect or the level left; settings: MRE600
Nucleic Acid [34] = experiment: Binding affinity to Escherichia coli 16S rRNA helix 44 assessed as increase in classical-state occupancy by tRNA at 100 nM by smFRET; assay type: nucleic-acid assay; settings: MRE600
Nucleic Acid [35] = experiment: Binding affinity to Escherichia coli 16S rRNA helix 44 assessed as decrease in classical-state occupancy by tRNA at 20 uM by smFRET; assay type: nucleic-acid assay; design: scale not given: the % may be the effect or the level left; settings: MRE600

- Activity [1]: Active
- Activity [2]: Active
- Activity [3]: Active
- Activity [4]: 10%
- fold change (FC) [5]: 1.5
- fold change (FC) [6]: 2
- Activity [7]: Active
- Activity (Nucleic Acid [8]): 46.8%
- Activity (Nucleic Acid [9]): 0.04 s⁻¹
Compound: NCCC[C@H](N)CC(=O)N[C@H]1CNC(=O)[C@H]([C@H]2C[C@H](O)NC(N)=N2)NC(=O)/C(=C/NC(N)=O)NC(=O)[C@H](CO)NC(=O)[C@H](CO)NC1=O (β3hOrn-[Dap]SS[ΔAla(Z-3-ureido)][X1]; lactam 1-C)

Compound: NC[C@@H]1O[C@@H](O[C@H]2[C@H](O)[C@@H](O[C@H]3O[C@H](CO)[C@@H](O)[C@H](N)[C@H]3O)[C@H](N)C[C@@H]2N)[C@@H](O)[C@H](O)[C@H]1O [KANAMYCIN A]
- Activity (Nucleic Acid [10]): Dose-dependent effect
- Activity (Nucleic Acid [11]): Active
- Activity (Nucleic Acid [12]): tde
- Activity (Nucleic Acid [13]): 25%
- Activity (Nucleic Acid [14]): 8%
- EC50 (Nucleic Acid [15]): 300 nM
- EC50 (Nucleic Acid [16]): 300 nM
- Activity (Nucleic Acid [17]): inactive
- Activity (Escherichia coli [18]): 10%
- Activity (Nucleic Acid [19]): 25%
- Activity (Nucleic Acid [20]): 69.6%
- Activity (Nucleic Acid [21]): 0.27 s⁻¹

- EC50 (Nucleic Acid [24]): 100 nM
- Activity (Nucleic Acid [25]): > 1 µM
Compound: COc1ccc(C[C@H](N)C(=O)N[C@H]2[C@@H](O)[C@H](n3cnc4c(N(C)C)ncnc43)O[C@@H]2CO)cc1 [PUROMYCIN]
- Activity (Escherichia coli [22]): Active
- Activity (Escherichia coli [23]): 25%
- Activity (Escherichia coli [26]): Active

- fold change (FC) (Nucleic Acid [27]): 1.5
- fold change (FC) (Nucleic Acid [28]): 3
- Activity (Nucleic Acid [29]): 70.3%
- Activity (Nucleic Acid [30]): 52%
- Activity (Nucleic Acid [31]): 0.31 s⁻¹
- Activity (Nucleic Acid [32]): 0.06 s⁻¹
- Activity (Nucleic Acid [33]): 10%
- Activity (Nucleic Acid [34]): 6%
- Activity (Nucleic Acid [35]): 10%
Compound: NC[C@@H]1O[C@H](O[C@H]2[C@@H](O)[C@H](O[C@@H]3[C@@H](O)[C@H](N)C[C@H](N)[C@H]3O[C@H]3O[C@H](CN)[C@@H](O)[C@H](O)[C@H]3N)O[C@@H]2CO)[C@H](N)[C@@H](O)[C@@H]1O

- Activity (Nucleic Acid [14]): 5%
- Activity (Nucleic Acid [19]): 18%
- Activity (Nucleic Acid [20]): 67.2%
- Activity (Nucleic Acid [21]): 0.42 s⁻¹
Compound: CN[C@@H]1[C@@H](O)[C@@H](O[C@@H]2[C@@H](O)[C@H](O[C@H]3O[C@H]([C@@H](C)N)CC[C@H]3N)[C@@H](N)C[C@H]2N)OC[C@]1(C)O

Compound: NC[C@@H]1O[C@H](O[C@H]2[C@@H](O)[C@H](O[C@@H]3[C@@H](O)[C@H](N)C[C@H](N)[C@H]3O[C@H]3O[C@H](CO)[C@@H](O)[C@H](O)[C@H]3N)O[C@@H]2CO)[C@H](N)[C@@H](O)[C@@H]1O
- Activity (Nucleic Acid [14]): 2%
- Activity (Nucleic Acid [19]): 12%
- Activity (Nucleic Acid [20]): 63.9%
- Activity (Nucleic Acid [21]): 0.51 s⁻¹

Compound: NC[C@H]1O[C@H](O[C@H]2[C@H](O)[C@@H](O[C@H]3O[C@H](CO)[C@@H](O)[C@H](N)[C@H]3O)[C@H](N)C[C@@H]2N)[C@H](N)[C@@H](O)[C@@H]1O [BEKANAMYCIN]
- Activity (Nucleic Acid [10]): Dose-dependent effect
- Activity (Nucleic Acid [11]): Active
- Activity (Nucleic Acid [12]): tde
- Activity (Nucleic Acid [13]): 25%
- Activity (Nucleic Acid [14]): 8%
- EC50 (Nucleic Acid [15]): 300 nM
- EC50 (Nucleic Acid [16]): 300 nM
- Activity (Nucleic Acid [17]): inactive
- Activity (Escherichia coli [18]): 10%
- Activity (Nucleic Acid [19]): 25%
- Activity (Nucleic Acid [20]): 69.6%
- Activity (Nucleic Acid [21]): 0.27 s⁻¹

Compound: CN[C@@H]1[C@@H](O)[C@@H](O[C@@H]2[C@@H](O)[C@H](O[C@H]3O[C@H]([C@@H](C)NC)CC[C@H]3N)[C@@H](N)C[C@H]2N)OC[C@]1(C)O
- Activity (Nucleic Acid [14]): 5%
- Activity (Nucleic Acid [19]): 14%
- Activity (Nucleic Acid [20]): 67.2%
- Activity (Nucleic Acid [21]): 0.42 s⁻¹
